Values joined by “and” are separate entries in the source; they are usually repeats but may differ in a detail not shown here. Equal values may be shown once.
What was measured:
Conditions in all cases: incubation time: 72 h
[1] = tested on: MDA-MB-436; assay: normalised viability (% of control), CellTiter-Blue; higher = more viable cells (about 100 = DMSO control)
Summary of the method: (§1)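 Breast cancer cell lines were treated for 72 h in 384-well format and measured by CellTiter-Blue fluorescence at 560/590 nm. Results were normalised per plate to vehicle (100) and a positive kill control (0). The entry is normalised viability at a single listed concentration of the series.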

[2] = tested on: SK-BR-3; assay: as above
Summary of the method: as §1

[3] = tested on: HCC1937; assay: as above
Summary of the method: as §1

[4] = tested on: MDA-MB-468; assay: as above
Summary of the method: as §1

[5] = tested on: BT-474; assay: as above
Summary of the method: as §1

[6] = tested on: CAL-51; assay: as above
Summary of the method: as §1

[7] = tested on: CAL-85-1; assay: as above
Summary of the method: as §1

[8] = tested on: HCC1143; assay: as above
Summary of the method: as §1

[9] = tested on: MDA-MB-231; assay: as above
Summary of the method: as §1

[10] = tested on: CAL-120; assay: as above
Summary of the method: as §1

[11] = tested on: BT-549; assay: as above
Summary of the method: as §1

[12] = tested on: DU-4475; assay: as above
Summary of the method: as §1

[13] = tested on: MFM-223; assay: as above
Summary of the method: as §1

[14] = tested on: MDA-MB-453; assay: as above
Summary of the method: as §1

[15] = tested on: Hs578T; assay: as above
Summary of the method: as §1

[16] = tested on: HCC1599; assay: as above
Summary of the method: as §1

[17] = tested on: HDQ-P1; assay: as above
Summary of the method: as §1

[18] = tested on: CAL-148; assay: as above
Summary of the method: as §1

[19] = tested on: CAL-51; assay: normalised viability (% of control), CellTiter-Blue; higher = more viable cells (about 100 = DMSO control); remark: listed apart in the source
Protocol: (§2)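 DSRT, CellTiter-Blue viability, 72 h incubation. Signal is normalised to DMSO and benzethonium chloride controls. Value is the normalised response at dose 9.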

[20] = tested on: CAL-85-1; assay: as above; remark: listed apart in the source
Protocol: as §2

[21] = tested on: DU-4475; assay: as above; remark: listed apart in the source
Protocol: as §2

[22] = tested on: MDA-MB-453; assay: as above; remark: listed apart in the source
Protocol: as §2

[23] = tested on: HDQ-P1; assay: as above; remark: listed apart in the source
Protocol: as §2

[24] = tested on: CAL-148; assay: as above; remark: listed apart in the source
Protocol: as §2

[25] = tested on: MDA-MB-436; assay: normalised viability (% of control), CellTiter-Blue; higher = more viable cells (100 = DMSO, 0 = benzethonium chloride kill control)
Protocol: (§3)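 DSRT, CellTiter-Blue viability, 72 h incubation. Signal is normalised to DMSO and benzethonium chloride controls. Value is the normalised response at dose 1.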

[26] = tested on: BT-474; assay: as above
Protocol: as §3

[27] = tested on: CAL-85-1; assay: as above
Protocol: as §3

[28] = tested on: HCC1143; assay: as above
Protocol: as §3

[29] = tested on: MDA-MB-231; assay: as above
Protocol: as §3

[30] = tested on: MDA-MB-453; assay: as above
Protocol: as §3

[31] = tested on: CAL-148; assay: as above
Protocol: as §3

CCCCCCCCc1ccc(CCC(N)(CO)CO)cc1 [Fingolimod]
normalised viability ([1]; 10000 nM): 4.17%
normalised viability ([2]; 10000 nM): 3.17%
normalised viability ([3]; 10000 nM): 2.06%
normalised viability ([4]; 10000 nM): 0.62%
normalised viability ([5]; 10000 nM): 2.28%
normalised viability ([6]; 100 nM): 111%
normalised viability ([7]; 100 nM): 96.6%
normalised viability ([8]; 10000 nM): 69.5%
normalised viability ([9]; 10000 nM): 0.68%
normalised viability ([10]; 10000 nM): 2.23%
normalised viability ([11]; 10000 nM): 8.23%
normalised viability ([12]; 100 nM): 107%
normalised viability ([13]; 10000 nM): 9.42%
normalised viability ([14]; 100 nM): 97.7%
normalised viability ([15]; 10000 nM): 2.92%
normalised viability ([16]; 10000 nM): 128%
normalised viability ([17]; 100 nM): 111%
normalised viability ([18]; 100 nM): 87%
normalised viability ([19]; 10000 nM): 91.8%
normalised viability ([20]; 10000 nM): 4.87%
normalised viability ([21]; 10000 nM): 136%
normalised viability ([22]; 10000 nM): 2.6%
normalised viability ([23]; 10000 nM): 0.67%
normalised viability ([24]; 10000 nM): 62.2%
normalised viability ([25]; 1 nM): 113%
normalised viability ([26]; 1 nM): 97.7%
normalised viability ([27]; 1 nM): 85.8%
normalised viability ([28]; 1 nM): 92.5%
normalised viability ([29]; 1 nM): 95.6%
normalised viability ([30]; 1 nM): 94%
normalised viability ([31]; 1 nM): 96.8%

Cc1cc2c(C(C)C)c(O)c(O)c(C=O)c2c(O)c1-c1c(C)cc2c(C(C)C)c(O)c(O)c(C=O)c2c1O [Gossypol]
normalised viability ([1]; 100000 nM): 1.2%
normalised viability ([2]; 100000 nM): 1.49%
normalised viability ([3]; 100000 nM): 6.06%
normalised viability ([4]; 100000 nM): 2.31%
normalised viability ([5]; 100000 nM): 20.4%
normalised viability ([6]; 1000 nM): 92.1%
normalised viability ([7]; 1000 nM): 87.7%
normalised viability ([8]; 100000 nM): 15.7%
normalised viability ([9]; 100000 nM): 5.74%
normalised viability ([10]; 100000 nM): 3.6%
normalised viability ([11]; 100000 nM): 2.19%
normalised viability ([12]; 1000 nM): 113%
normalised viability ([13]; 100000 nM): 4.14%
normalised viability ([14]; 1000 nM): 105%
normalised viability ([15]; 100000 nM): 1.54%
normalised viability ([16]; 100000 nM): 4.74%
normalised viability ([17]; 1000 nM): 128%
normalised viability ([18]; 1000 nM): 107%
normalised viability ([19]; 100000 nM): 2.71%
normalised viability ([20]; 100000 nM): 3.4%
normalised viability ([21]; 100000 nM): 4.97%
normalised viability ([22]; 100000 nM): 2.75%
normalised viability ([23]; 100000 nM): 4.15%
normalised viability ([24]; 100000 nM): 3.73%

Cc1ccc(NC(=O)c2ccc(CN3CCN(C)CC3)cc2)cc1Nc1nccc(-c2cccnc2)n1 [Imatinib]
normalised viability ([1]; 10000 nM): 97.6% and 106%
normalised viability ([2]; 10000 nM): 80.8% and 91.9%
normalised viability ([3]; 10000 nM): 88%
normalised viability ([4]; 10000 nM): 103% and 99.3%
normalised viability ([5]; 10000 nM): 104% and 96.8%
normalised viability ([6]; 100 nM): 102% and 98.4%
normalised viability ([7]; 100 nM): 90.9%
normalised viability ([8]; 10000 nM): 86.7% and 88.8%
normalised viability ([9]; 10000 nM): 107% and 104%
normalised viability ([10]; 10000 nM): 114%
normalised viability ([11]; 10000 nM): 93% and 76.6%
normalised viability ([12]; 100 nM): 89.4% and 111%
normalised viability ([13]; 10000 nM): 105% and 98%
normalised viability ([14]; 100 nM): 104% and 99.3%
normalised viability ([15]; 10000 nM): 95.3% and 109%
normalised viability ([16]; 10000 nM): 97.8% and 103%
normalised viability ([18]; 100 nM): 85.4% and 91.8%
normalised viability ([19]; 10000 nM): 110% and 93.9%
normalised viability ([20]; 10000 nM): 87.7% and 85.9%
normalised viability ([21]; 10000 nM): 121% and 110%
normalised viability ([22]; 10000 nM): 57.6% and 48.6%
normalised viability ([24]; 10000 nM): 80.5% and 92.7%
normalised viability ([25]; 1 nM): 90.1% and 106%
normalised viability ([27]; 1 nM): 87.5% and 85.1%
normalised viability ([28]; 1 nM): 88.9% and 93%
normalised viability ([29]; 1 nM): 90.8% and 95.5%
normalised viability ([30]; 1 nM): 106% and 102%
normalised viability ([31]; 1 nM): 86.2% and 97.6%

Cn1c(=O)n(-c2ccc(C(C)(C)C#N)cc2)c2c3cc(-c4cnc5ccccc5c4)ccc3ncc21 [NVP-BEZ235]
normalised viability ([1]; 1000 nM): 63.2%
normalised viability ([2]; 1000 nM): 15.6%
normalised viability ([3]; 1000 nM): 45.5%
normalised viability ([4]; 1000 nM): 28.1%
normalised viability ([5]; 1000 nM): 41%
normalised viability ([6]; 10 nM): 54.6%
normalised viability ([7]; 10 nM): 68.6%
normalised viability ([8]; 1000 nM): 30.1%
normalised viability ([9]; 1000 nM): 27.1%
normalised viability ([10]; 1000 nM): 14.4%
normalised viability ([11]; 1000 nM): 18.2%
normalised viability ([12]; 10 nM): 107%
normalised viability ([13]; 1000 nM): 24.1%
normalised viability ([14]; 10 nM): 49.9%
normalised viability ([15]; 1000 nM): 24.7%
normalised viability ([16]; 1000 nM): 55.2%
normalised viability ([17]; 10 nM): 69%
normalised viability ([18]; 10 nM): 73.5%
normalised viability ([19]; 1000 nM): 8.61%
normalised viability ([20]; 1000 nM): 27.7%
normalised viability ([21]; 1000 nM): 5.52%
normalised viability ([22]; 1000 nM): 13.8%
normalised viability ([23]; 1000 nM): 34%
normalised viability ([24]; 1000 nM): 0.2%
normalised viability ([25]; 0.1 nM): 119%
normalised viability ([26]; 0.1 nM): 105%
normalised viability ([27]; 0.1 nM): 96.9%
normalised viability ([28]; 0.1 nM): 98.9%
normalised viability ([29]; 0.1 nM): 111%
normalised viability ([30]; 0.1 nM): 96.8%
normalised viability ([31]; 0.1 nM): 114%

C/C(=C\c1csc(C)n1)[C@@H]1C[C@@H]2O[C@]2(C)CCC[C@H](C)[C@H](O)[C@@H](C)C(=O)C(C)(C)[C@@H](O)CC(=O)O1 [Patupilone]
normalised viability ([1]; 1000 nM): 40.1%
normalised viability ([2]; 1000 nM): 15.2%
normalised viability ([3]; 1000 nM): 20.4%
normalised viability ([4]; 1000 nM): 54.8%
normalised viability ([5]; 1000 nM): 25.4%
normalised viability ([6]; 10 nM): 59.1%
normalised viability ([7]; 10 nM): 33.9%
normalised viability ([8]; 1000 nM): 32%
normalised viability ([9]; 1000 nM): 30.7%
normalised viability ([10]; 1000 nM): 23.4%
normalised viability ([11]; 1000 nM): 22.1%
normalised viability ([12]; 10 nM): 57.5%
normalised viability ([13]; 1000 nM): 45.7%
normalised viability ([14]; 10 nM): 47.3%
normalised viability ([15]; 1000 nM): 13.2%
normalised viability ([16]; 1000 nM): 79.3%
normalised viability ([17]; 10 nM): 92.5%
normalised viability ([18]; 10 nM): 32.3%
normalised viability ([19]; 1000 nM): 13.6%
normalised viability ([20]; 1000 nM): 30.3%
normalised viability ([21]; 1000 nM): 2.77%
normalised viability ([22]; 1000 nM): 20.9%
normalised viability ([23]; 1000 nM): 55.1%
normalised viability ([24]; 1000 nM): 19.9%
normalised viability ([25]; 0.1 nM): 116%
normalised viability ([26]; 0.1 nM): 97.7%
normalised viability ([27]; 0.1 nM): 93.4%
normalised viability ([28]; 0.1 nM): 102%
normalised viability ([29]; 0.1 nM): 129%
normalised viability ([30]; 0.1 nM): 97.5%
normalised viability ([31]; 0.1 nM): 105%

CNNCc1ccc(C(=O)NC(C)C)cc1 [Procarbazine]
normalised viability ([1]; 10000 nM): 81.5%
normalised viability ([2]; 10000 nM): 106%
normalised viability ([3]; 10000 nM): 81.7%
normalised viability ([4]; 10000 nM): 112%
normalised viability ([5]; 10000 nM): 113%
normalised viability ([6]; 100 nM): 96.4%
normalised viability ([7]; 100 nM): 89.2%
normalised viability ([8]; 10000 nM): 93.6%
normalised viability ([9]; 10000 nM): 109%
normalised viability ([10]; 10000 nM): 88.2%
normalised viability ([11]; 10000 nM): 89.5%
normalised viability ([12]; 100 nM): 91.3%
normalised viability ([13]; 10000 nM): 97.8%
normalised viability ([14]; 100 nM): 109%
normalised viability ([15]; 10000 nM): 114%
normalised viability ([16]; 10000 nM): 90%
normalised viability ([17]; 100 nM): 109%
normalised viability ([18]; 100 nM): 99%
normalised viability ([19]; 10000 nM): 102%
normalised viability ([20]; 10000 nM): 85.1%
normalised viability ([21]; 10000 nM): 85%
normalised viability ([22]; 10000 nM): 110%
normalised viability ([23]; 10000 nM): 124%
normalised viability ([24]; 10000 nM): 97%
normalised viability ([25]; 1 nM): 99.3%
normalised viability ([26]; 1 nM): 92.5%
normalised viability ([27]; 1 nM): 92.4%
normalised viability ([28]; 1 nM): 103%
normalised viability ([29]; 1 nM): 112%
normalised viability ([30]; 1 nM): 110%
normalised viability ([31]; 1 nM): 108%
